Test results as given in ChEMBL document CHEMBL5674860, “Optimized Dual-Glo Assay to identify co-culture-induced drug vulnerabilities in 3D CRC models” (2024).

What was measured:
Type in all cases: functional, Homo sapiens
Parameters in all cases: dose or concentration left out as unconfirmed
Colon cancer organoid [1] = experiment: Optimized Dual-Glo assay to identify co-culture induced drug vulnerabilities using donated chemical probes and chemogenomics kinase set in O06 CRC organoid and F06 CAF mono and co-culture. […] Cell viability is reported both mono and co-culture models.
Colon cancer organoid [2] = experiment: Optimized Dual-Glo assay to identify co-culture induced drug vulnerabilities using donated chemical probes and chemogenomics kinase set in O14 CRC organoid and F14 CAF mono and co-culture. […] Cell viability is reported both mono and co-culture models.
Colon cancer organoid [3] = experiment: Optimized Dual-Glo assay to identify co-culture induced drug vulnerabilities using donated chemical probes and chemogenomics kinase set in O20 CRC organoid and F20 CAF mono and co-culture. […] Cell viability is reported both mono and co-culture models.
[4] = Culture type Co-Culture, Transduced with Lucferase2-P2A-EGFP lentivirus
[5] = Culture type Co-Culture, Transduced with Renilla-dsRed lentivirus
[6] = Culture type Mono-Culture, Transduced with Lucferase2-P2A-EGFP lentivirus
[7] = Culture type Mono-Culture, Transduced with Renilla-dsRed lentivirus

| SMILES | Cell Viability (Colon cancer organoid [1]; [4]) [%] | Cell Viability (Colon cancer organoid [1]; [5]) [%] | Cell Viability (Colon cancer organoid [1]; [6]) [%] | Cell Viability (Colon cancer organoid [1]; [7]) [%] | Cell Viability (Colon cancer organoid [2]; [4]) [%] | Cell Viability (Colon cancer organoid [2]; [5]) [%] | Cell Viability (Colon cancer organoid [2]; [6]) [%] | Cell Viability (Colon cancer organoid [2]; [7]) [%] | Cell Viability (Colon cancer organoid [3]; [4]) [%] | Cell Viability (Colon cancer organoid [3]; [5]) [%] | Cell Viability (Colon cancer organoid [3]; [6]) [%] | Cell Viability (Colon cancer organoid [3]; [7]) [%] |
| --- | --- | --- | --- | --- | --- | --- | --- | --- | --- | --- | --- | --- |
| CN1CCN(Cc2cc(NC(=O)c3ccc4c(c3)CN(c3ccccc3)CC4)cc(C(F)(F)F)c2)CC1 | 103.855 | 89.7391 | 108.49 | 105.467 | 99.7753 | 107.038 | 129.235 | 97.9505 | 90.0307 | 84.0381 | 92.4079 | 96.3902 |
| CCS(=O)(=O)Nc1ccc(Oc2ccc(F)cc2F)c(-c2cn(C)c(=O)c3[nH]ccc23)c1 [MIVEBRESIB] | 13.1828 | 272.686 | 12.7607 | 153.585 | 11.3223 | 338.596 | 8.201 | 180.439 | 5.728 | 64.2458 | 7.404 | 12.1973 |
| CC(=O)Nc1nc(CN2CCC[C@H](Cc3cc(C)nc(C)c3)C2)cs1 [JNJ-73924149] | 110.779 | 72.9092 | 164.947 | 124.842 | 81.3438 | 100.385 | 108.387 | 92.0646 | 90.3874 | 105.251 | 100.726 | 118.221 |
| C[C@@]1(Cc2ccc(C#N)cc2)C(=O)N(c2cc(Cl)cc(Cl)c2)c2ncc(C(=O)NC3(c4nc(C5CCC5)no4)CC3)n21 [BI 9446] | 85.7019 | 100.079 | 74.4511 | 102.688 | 88.6006 | 103.948 | 113.423 | 106.796 | 72.3076 | 136.535 | 95.8483 | 102.524 |
| COc1cc(Nc2ccnc3ccc(Br)cc23)cc(OC)c1OC | 12.1878 | 144.697 | 4.043 | 101.861 | 114.11 | 94.8334 | 91.9496 | 94.0266 | 3.207 | 235.19 | 3.534 | 97.9085 |
| Cc1nc(NC(=O)N2CCC[C@H]2C(N)=O)sc1-c1ccnc(C(C)(C)C(F)(F)F)c1 [ALPELISIB] | 74.6278 | 68.5217 | 72.4718 | 69.5837 | 44.356 | 105.185 | 47.7974 | 68.4414 | 70.7946 | 99.8659 | 21.7931 | 78.1697 |
| O=C(NCC(=O)N1CCCC1)Nc1ccc2cnccc2c1 | 80.3687 | 124.064 | 84.4387 | 94.1078 | 77.6259 | 126.417 | 75.4606 | 109.537 | 120.858 | 100.064 | 123.325 | 84.2387 |
| Cc1cnc(Nc2ccc(F)cc2Cl)nc1-c1c[nH]c(C(=O)N[C@H](CO)c2cccc(Cl)c2)c1 | 51.8597 | 63.6391 | 9.819 | 57.8689 | 10.9302 | 34.4005 | 7.352 | 19.5504 | 6.951 | 113.857 | 5.763 | 41.0342 |
| Cn1cc(-c2ccc3occ(-c4ccccc4-c4ccccc4)c3n2)cn1 | 137.24 | 150.558 | 120.153 | 121.662 | 101.217 | 93.8283 | 119.561 | 96.0811 | 88.7548 | 89.3741 | 123.78 | 115.172 |
